Test results taken from US9993494B2, “Compositions and methods for treating fibrotic disease” (eFFECTOR Therapeutics, Inc., priority 2014, dated 2018).

Columns and labels:
Format in all cases: cell-based
[1] = test system: normal human lung fibroblasts; experiment: Procollagen Type 1 C-Peptide (PIPC) EIA in culture media of TGFβ-treated fibroblasts; details: fibroblasts treated with TGFβ, 24 hours, procollagen ELISA
Method: (§1) Briefly, normal human lung fibroblasts (Lonza #CC-2512; cell passage numbers 2 through 5 were used for all experiments) were seeded (Day 0) and cultured in Dulbecco's modified Eagle medium (DMEM) supplemented with 10% fetal bovine serum (FBS), penicillin, streptomycin and glutamax (Invitrogen) at 37° C. in a humidified incubator with 5% CO2 overnight. On Day 1, cells were harvested, washed with phosphate buffered saline (PBS), and then incubated for 48 hours in fresh serum-free DMEM supplemented with penicillin, streptomycin, and glutamax.
(§2) After this 24 hour incubation, procollagen type 1 levels were measured by collecting culture media, centrifuging to pellet cellular debris, and stored at −80° C. Procollagen Type 1 C-Peptide (PIPC) was quantified using the (PIP) EIA kit (Clontech, Cat. No. MK101) according to manufacturer's instructions. The TGFβ-treated fibroblasts of this example were examined by ribosomal profiling (about 6×10^6 cells/10 cm plate) and western blot analysis (about 1×10^6 cells/well of a 6-well plate).
as §1, with “(Lonza;” for “(Lonza #CC-2512;”, “CO2 conditions” for “CO2”, “glutamax. On Day 3, cells were harvested, resuspended in fresh serum-free DMEM containing silvestrol (1, 5, 10, 75, 100, 500, or 1000 nM) and 10 ng/ml TGFβ, and cultured for 24 hours. Controls included untreated cells and cells treated with only TGFβ.” for “glutamax.”
as §2, with “kit (Clontech)” for “kit (Clontech, Cat. No. MK101)”, “example are” for “example were”
The levels of α-SMA and procollagen type 1, markers of fibroblast transdifferentiation into myofibroblasts and a surrogate for fibrotic disease progression, were measured after a 24 hour incubation of fibroblasts in the presence or absence of TGFβ sieIF4A1 or siCont. The knockdown efficiency was determined by quantitating the eIF4A mRNA level by qPCR (data not shown) and assessing the protein level by western analysis (see FIG. 11).

[2] = test system: normal human lung fibroblasts; experiment: Western blot of α-smooth muscle actin (α-SMA) in TGFβ-treated fibroblasts; details: fibroblasts treated with TGFβ, 24 hours, western blot
Method: as §1, §2
TGFβ-dependent activation of the PI3K/Akt/mTOR and ERK pathways were also examined by western blot analysis (about 1×10^6 cells/well from a 6-well plate). Briefly, cells were washed with PBS and lysed in 1× cell lysis buffer (Cell Signaling Technology, Inc., Danvers, Mass.) for 15 minutes at 4° C. Lysates were briefly sonicated, clarified by centrifugation for 15 minutes at 14,000 rpm, and then supernatants were collected. Protein concentration in the soluble fraction was determined by BCA protein assay (Thermo Scientific, Rockford, Ill.). Samples of protein (20 μg) were resolved on 4-20% Bis-Tris gradient gel (Invitrogen, Carlsbad, Calif.) and transferred to nitrocellulose membrane. The resulting blots were blocked for 1 hour at room temperature with Odyssey blocking solution (LI-COR) and then incubated with primary antibodies at 4° C. overnight. The following day, each blot was washed three times for 10 minutes in TBST, and then incubated with goat anti-rabbit fluorescent conjugated secondary antibody (IRDye 800 CW at 1:20,000; LI-COR) for 1 hour at room temperature. The blots were washed and scanned, and then specific proteins were detected by using the LI-COR Odyssey infrared imager. The following antibodies were used at 1:1000 dilution: anti-α-actin (Sigma #A2547), anti-phospho-4EBP(Ser65), anti-phospho-rpS6(Ser235/236)(#4858), anti-phospho-ERK1/2(Thr202/Tyr204)(#4370), anti-phospho-p70S6K(Thr421/Ser424)(#9204), anti-phospho-pAKT(Ser473), anti-phospho-MNK(Thr197/202), and anti-β-actin (#4970). Unless otherwise indicated, the antibodies were from Cell Signaling Technology, Inc. (Danvers, Mass.).
as §1, with “(Lonza;” for “(Lonza #CC-2512;”, “CO2 conditions” for “CO2”, “glutamax. On Day 3, cells were harvested, resuspended in fresh serum-free DMEM containing silvestrol (1, 5, 10, 75, 100, 500, or 1000 nM) and 10 ng/ml TGFβ, and cultured for 24 hours. Controls included untreated cells and cells treated with only TGFβ.” for “glutamax.”
as §2, with “kit (Clontech)” for “kit (Clontech, Cat. No. MK101)”, “example are” for “example were”

[3] = test system: normal human lung fibroblasts; experiment: Ribosomal profiling: translational efficiency in TGFβ-treated fibroblasts; details: vs untreated fibroblasts
Method: Ribosomal profiling allows for measurement of changes in transcription and translation on a genome-wide basis accompanying TGFβ-dependent transformation of fibroblasts to myofibroblasts. Ribosomal profiles of the TGFβ-treated fibroblasts from Example 1 (about 6×10^6 cells/10 cm plate) were prepared and analyzed for changes in translational efficiencies with respect to potential disease-associated cellular changes accompanying this TGFβ-induced transformation.
Briefly, cells were washed with cold PBS supplemented with cycloheximide and lysed with 1× mammalian cell lysis buffer for 10 minutes on ice. Lysates were clarified by centrifugation for 10 minutes at 14,000 rpm and supernatants were collected. Cell lysates were processed to generate ribosomal protected fragments and total mRNA according to the instructions included with the ARTseq Ribosome Profiling Kit (Illumina, San Diego, Calif.). Sequencing of total RNA (RNA) and of ribosome-protected fragments of RNA (RPF) was carried out using RNA-Seq methodology according to the manufacturer's instructions (Illumina). To analyze the ribosomal profiles, RNA-Seq reads were processed with tools from the FASTX-Toolkit (fastq_quality_trimmer, fastx_clipper and fastx_trimmer). Unprocessed and processed reads were evaluated for a variety of quality measures using FastQC, and processed reads were mapped to the human genome using TopHat (see, e.g., Trapnell et al., Bioinformatics 25:1105, 2009). Gene-by-gene assessment of the number of fragments strictly and uniquely mapping to the coding region of each gene was conducted using HTSeq-count, a component of the HTSeq package. […] Genes with low counts in either RPF or RNA were excluded from differential analyses. Pathway and network analyses of differential data were conducted using Ingenuity Pathway Analysis (IPA).

## CC(C)CCN1c2nc(Nc3cc(F)c(O)c(F)c3)ncc2N(C)C(=O)C1C (centres unmarked) [BI-D1870, 2-[(3,5-Difluoro-4-hydroxyphenyl)amino]-7,8-dihydro-5,7-dimethyl-8-(3-methylbutyl)-6(5H)-pteridone]
[1]
  % Renormalization Collagen: +++ (+++ = >60%)
[2]
  % Renormalization α-SMA: ++ (++ = 30-60%)

## COC(=O)c1ccc2c(c1)NC(=O)/C2=C(\Nc1ccc(N(C)C(=O)CN2CCN(C)CC2)cc1)c1ccccc1 [Nintedanib]
[1]
  % Renormalization Collagen: +++ (+++ = >60%)
[2]
  % Renormalization α-SMA: +++ (+++ = >60%)

## CO[C@H]1C[C@@H]2CC[C@@H](C)[C@@](O)(O2)C(=O)C(=O)N2CCCC[C@H]2C(=O)O[C@H]([C@H](C)C[C@@H]2CC[C@@H](O)[C@H](OC)C2)CC(=O)[C@H](C)/C=C(\C)[C@@H](O)[C@@H](OC)C(=O)[C@H](C)C[C@H](C)/C=C/C=C/C=C/1C [Rapamycin]
[1]
  % Renormalization Collagen: ++ (++ = 30-60%)
[2]
  % Renormalization α-SMA: + (+ = 0-30%)

## TGF-β
[3]
  Log2FC TE AKT1: −0.15
  Log2FC TE AKT2: −0.16
  Log2FC TE AKT3: 0.35
  Log2FC TE ATM: −0.16
  Log2FC TE EIF1: 0.75
  Log2FC TE EIF2A: 0.74
  Log2FC TE EIF2AK1: −0.25
  Log2FC TE EIF2AK3: 0.67
  Log2FC TE EIF2AK4: −0.28
  Log2FC TE EIF2B1: 0.57
  Log2FC TE EIF2B2: 0.16
  Log2FC TE EIF2B3: 0.54
  Log2FC TE EIF2B4: −0.35
  Log2FC TE EIF2B5: 0.46
  Log2FC TE EIF2C2: 0.12
  Log2FC TE EIF2S1: −0.18
  Log2FC TE EIF2S2: −0.43
  Log2FC TE EIF2S3: 1.05
  Log2FC TE EIF3A: 0.04
  Log2FC TE EIF3B: 0.30
  Log2FC TE EIF3D: 0.71
  Log2FC TE EIF3E: 1.33
  Log2FC TE EIF3F: 0.92
  Log2FC TE EIF3G: 0.55
  Log2FC TE EIF3H: 1.34
  Log2FC TE EIF3I: 0.29
  Log2FC TE EIF3K: 0.73
  Log2FC TE EIF3L: 1.63
  Log2FC TE EIF3M: 0.90
  Log2FC TE EIF4A1: 0.35
  Log2FC TE EIF4A2: 0.41
  Log2FC TE EIF4A3: 0.19
  Log2FC TE EIF4E: −0.51
  Log2FC TE EIF4G1: 0.10
  Log2FC TE EIF4G2: 0.87
  Log2FC TE EIF4G3: −0.54
  Log2FC TE EIF5: 0.56
  Log2FC TE FAU: 0.35
  Log2FC TE GRB2: 0.05
  Log2FC TE GSK3B: −0.13
  Log2FC TE HRAS: 0.13
  Log2FC TE MAP2K1: −0.18
  Log2FC TE MAP2K2: 0.02
  Log2FC TE MAPK1: 0.12
  Log2FC TE MAPK3: 0.29
  Log2FC TE MRAS: −0.45
  Log2FC TE NRAS: 0.19
  Log2FC TE PABPC1: 0.16
  Log2FC TE PAIP1: −0.69
  Log2FC TE PIK3C2A: −0.64
  Log2FC TE PIK3C3: −0.09
  Log2FC TE PIK3CA: −0.66
  Log2FC TE PIK3R4: −0.69
  Log2FC TE PPP1CA: 0.04
  Log2FC TE PPP1CB: 0.13
  Log2FC TE PPP1CC: 0.27
  Log2FC TE PPP1R15A: −0.09
  Log2FC TE RAF1: 0.16
  Log2FC TE RPL3: 1.68
  Log2FC TE RPL4: 1.23
  Log2FC TE RPL5: 1.49
  Log2FC TE RPL6: 1.13
  Log2FC TE RPL7: 0.59
  Log2FC TE RPL7A: 1.37
  Log2FC TE RPL8: 0.69
  Log2FC TE RPL9: 1.41
  Log2FC TE RPL10: 0.74
  Log2FC TE RPL10A: 0.92
  Log2FC TE RPL11: 0.78
  Log2FC TE RPL12: 1.28
  Log2FC TE RPL13: 0.83
  Log2FC TE RPL13A: 1.26
  Log2FC TE RPL14: 1.08
  Log2FC TE RPL15: 0.95
  Log2FC TE RPL17: 0.97
  Log2FC TE RPL18: 0.81
  Log2FC TE RPL18A: 1.06
  Log2FC TE RPL19: 0.71
  Log2FC TE RPL21: 0.83
  Log2FC TE RPL22: 0.22
  Log2FC TE RPL22L1: 0.84
  Log2FC TE RPL23: 0.79
  Log2FC TE RPL23A: 1.03
  Log2FC TE RPL24: 1.09
  Log2FC TE RPL26: 1.42
  Log2FC TE RPL27: 1.17
  Log2FC TE RPL27A: 1.17
  Log2FC TE RPL28: 1.24
  Log2FC TE RPL29: 1.16
  Log2FC TE RPL30: 1.20
  Log2FC TE RPL31: 0.80
  Log2FC TE RPL32: 1.55
  Log2FC TE RPL34: 1.21
  Log2FC TE RPL35: 0.59
  Log2FC TE RPL35A: 1.22
  Log2FC TE RPL36: 0.76
  Log2FC TE RPL36AL: −0.08
  Log2FC TE RPL37: 1.31
  Log2FC TE RPL37A: 1.33
  Log2FC TE RPL38: 1.00
  Log2FC TE RPL41: 0.85
  Log2FC TE RPLP0: 0.73
  Log2FC TE RPLP1: 0.50
  Log2FC TE RPLP2: 0.93
  Log2FC TE RPS2: 0.88
  Log2FC TE RPS3: 1.22
  Log2FC TE RPS3A: 1.48
  Log2FC TE RPS4X: 1.14
  Log2FC TE RPS4Y1: 0.78
  Log2FC TE RPS5: 0.75
  Log2FC TE RPS6: 1.59
  Log2FC TE RPS7: 1.13
  Log2FC TE RPS8: 1.20
  Log2FC TE RPS9: 0.97
  Log2FC TE RPS10: 0.74
  Log2FC TE RPS11: 0.97
  Log2FC TE RPS12: 0.94
  Log2FC TE RPS13: 1.15
  Log2FC TE RPS14: 1.01
  Log2FC TE RPS15: 0.74
  Log2FC TE RPS15A: 1.53
  Log2FC TE RPS16: 1.10
  Log2FC TE RPS18: 1.18
  Log2FC TE RPS19: 0.99
  Log2FC TE RPS20: 1.39
  Log2FC TE RPS21: 1.36
  Log2FC TE RPS23: 0.74
  Log2FC TE RPS24: 0.66
  Log2FC TE RPS25: 1.58
  Log2FC TE RPS26: 0.71
  Log2FC TE RPS27: 1.08
  Log2FC TE RPS27A: 0.71
  Log2FC TE RPS27L: −0.15
  Log2FC TE RPS28: 0.74
  Log2FC TE RPS29: 0.89
  Log2FC TE RPSA: 0.99
  Log2FC TE RRAS: 0.00
  Log2FC TE RRAS2: 0.02
  Log2FC TE SHC1: −0.04
  Log2FC TE SOS2: 0.49
  Log2FC TE UBA52: 0.87

## Nc1nccc2c1ncn2[C@@H]1O[C@H](CO)[C@@H](O)[C@H]1O [DZA, 3-deaza-adenosine]
[1]
  % Renormalization Collagen: + (+ = 0-30%)
[2]
  % Renormalization α-SMA: + (+ = 0-30%)

## O=C(Nc1ccc(Cl)cc1)Nc1ccc2nonc2c1 [BOCPU, 1-(benzo[c][1,2,5]oxadiazol-5-yl)-3-(4-chlorophenyl)urea]
[2]
  % Renormalization α-SMA: +++ (+++ = >60%)

## N=C(N)NCCCCCCCN [GC7, N1-guanyl-1,7-diaminoheptane]
[1]
  % Renormalization Collagen: + (+ = 0-30%)
[2]
  % Renormalization α-SMA: + (+ = 0-30%)
